Reference: ChEMBL document CHEMBL1142802, “L-arginine analogs as alternate substrates for nitric oxide synthase” (Bioorg Med Chem Lett, 2005)

Target: Nitric oxide synthase, inducible (Homo sapiens, UniProt P35228)
Assay: Binding affinity towards inducible nitric oxide synthase

Nitric oxide synthase, inducible, sequence (P35228 whole entry): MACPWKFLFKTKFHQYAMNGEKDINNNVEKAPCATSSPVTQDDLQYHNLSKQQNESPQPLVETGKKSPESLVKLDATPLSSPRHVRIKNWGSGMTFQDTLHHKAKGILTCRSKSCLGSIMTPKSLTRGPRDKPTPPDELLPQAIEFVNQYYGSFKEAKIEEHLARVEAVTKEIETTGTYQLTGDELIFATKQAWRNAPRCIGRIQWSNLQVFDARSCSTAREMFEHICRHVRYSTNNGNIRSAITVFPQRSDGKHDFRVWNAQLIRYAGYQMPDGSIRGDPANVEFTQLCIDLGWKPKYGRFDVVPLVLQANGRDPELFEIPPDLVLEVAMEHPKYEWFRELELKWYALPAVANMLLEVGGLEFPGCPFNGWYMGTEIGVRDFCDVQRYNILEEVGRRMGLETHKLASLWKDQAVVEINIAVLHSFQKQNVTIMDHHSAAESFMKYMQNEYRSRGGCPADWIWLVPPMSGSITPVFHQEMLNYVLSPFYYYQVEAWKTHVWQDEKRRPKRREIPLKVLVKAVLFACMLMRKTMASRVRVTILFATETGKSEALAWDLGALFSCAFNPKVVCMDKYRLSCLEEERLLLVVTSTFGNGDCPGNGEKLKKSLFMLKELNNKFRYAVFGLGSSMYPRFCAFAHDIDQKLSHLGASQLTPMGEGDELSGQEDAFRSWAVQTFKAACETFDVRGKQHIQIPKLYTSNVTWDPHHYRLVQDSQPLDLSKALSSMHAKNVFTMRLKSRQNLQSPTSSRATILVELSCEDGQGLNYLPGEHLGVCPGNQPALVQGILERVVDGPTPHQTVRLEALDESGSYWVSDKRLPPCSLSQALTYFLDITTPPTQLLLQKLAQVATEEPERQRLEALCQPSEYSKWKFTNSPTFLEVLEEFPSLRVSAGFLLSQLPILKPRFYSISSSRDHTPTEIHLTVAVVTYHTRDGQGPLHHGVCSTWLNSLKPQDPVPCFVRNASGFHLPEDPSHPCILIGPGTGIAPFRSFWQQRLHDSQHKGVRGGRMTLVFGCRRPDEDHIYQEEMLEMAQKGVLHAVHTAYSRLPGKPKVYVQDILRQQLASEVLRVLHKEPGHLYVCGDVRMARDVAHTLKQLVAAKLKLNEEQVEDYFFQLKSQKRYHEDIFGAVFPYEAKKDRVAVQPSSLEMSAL

| SMILES | Ki [µM] |
| --- | --- |
| N=C(N)CCCCC(N)C(=O)O (configuration not stated) | > 3000 |
| N=C(N)NOCC[C@H](N)C(=O)O [CANAVANINE] | 220 |
